From the supplement of paper PMC10307832

Experiments:
Test in all cases: relative viability (nuclei count vs DMSO), 5 days (fraction); higher = more cells survive
[1] = compound: CCNC(=O)c1noc(-c2cc(C(C)C)c(O)cc2O)c1-c1ccc(CN2CCOCC2)cc1 [Luminespib]
Summary of the method: (§1)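 Lung cancer cell lines in 1536-well plates were kept overnight at 37 °C, then pinned with five library-drug doses (not always all listed) spaced by √10 on vehicle-anchored plates. After 5 days without medium change, cells were fixed, permeabilised and Hoechst-stained in one step, imaged at 4×, and nuclei were counted with MetaXpress. Viability is treated-well nuclei divided by vehicle-well nuclei, taken as the median over plates. Plates passed only with control CV below 25% and at least one doubling.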

[2] = compound: CN1CCN(CCOc2cc(OC3CCOCC3)c3c(Nc4c(Cl)ccc5c4OCO5)ncnc3c2)CC1 [Saracatinib]
Summary of the method: as §1

[3] = compound: Cc1cn(-c2cc(NC(=O)c3ccc(C)c(Nc4nccc(-c5cccnc5)n4)c3)cc(C(F)(F)F)c2)cn1 [Nilotinib]
Summary of the method: as §1

[4] = compound: CC1=CSC(=NC2CCCCC2)N1/N=C/C3=C(C(=C(C=C3)O)O)O [MIM1]
Summary of the method: as §1

[5] = compound: Nc1cccc2c1CN(C1CCC(=O)NC1=O)C2=O [Lenalidomide]
Summary of the method: as §1

Cell Line	relative viability ([1]; 0.002 µM)	relative viability ([1]; 0.006325 µM)	relative viability ([1]; 0.01 µM, anchor plate)	relative viability ([1]; 0.02 µM)	relative viability ([1]; 0.06325 µM)	relative viability ([1]; 0.2 µM)	relative viability ([2]; 0.02 µM)	relative viability ([2]; 0.2 µM)	relative viability ([2]; 0.6325 µM)	relative viability ([2]; 2 µM)	relative viability ([3]; 0.001 µM)	relative viability ([3]; 0.003162 µM)	relative viability ([3]; 0.01 µM)	relative viability ([3]; 0.03162 µM)	relative viability ([3]; 0.1 µM)	relative viability ([4]; 0.2 µM)	relative viability ([4]; 0.6325 µM)	relative viability ([4]; 2 µM)	relative viability ([4]; 6.325 µM)	relative viability ([4]; 20 µM)	relative viability ([5]; 0.253 µM)	relative viability ([5]; 0.8 µM)	relative viability ([5]; 2.53 µM)	relative viability ([5]; 8 µM)
NCI-H1651	0.979	0.934	0.86	0.818	0.738	0.351	1	0.887	1.07	0.937	0.94	1.09	1.14	0.905	0.676	0.983	0.959	0.932	0.896	0.799	0.972	0.984	1.14	0.904
NCI-H1666	1.05	0.937	1.03	1.01	0.956	0.838	1.02	0.942	1.27	1.17	0.934	0.989	1.06	0.918	1.01	1.03	0.966	0.945	0.802	0.564	1.02	0.745	1.1	1.05
NCI-H1703	1.12	0.899	–	0.708	0.134	0.14	0.93	0.772	0.448	0.326	0.795	0.684	0.538	0.286	–	0.897	1	0.878	0.205	0.133	0.991	0.923	1.01	0.904
NCI-H1734	0.999	0.902	0.198	0.634	0.159	0.15	1.06	–	0.86	0.783	0.918	1.14	1.21	0.687	0.402	1.02	0.871	0.953	0.476	0.182	1.01	1.07	1.09	0.798
NCI-H1755	0.996	0.987	0.355	0.979	0.818	0.225	0.953	0.859	0.957	0.88	0.974	1.08	1.03	0.832	0.828	1	0.956	1.01	0.816	0.308	0.976	0.986	1.07	0.879
NCI-H1792	0.926	0.71	0.52	0.348	0.167	0.107	1.09	0.726	1.03	0.776	0.706	0.817	1.07	–	0.831	0.966	0.79	0.728	0.76	0.659	1.09	0.715	1.35	0.419
NCI-H1793	0.775	0.84	0.192	0.248	0.137	0.15	0.909	0.674	1.01	0.666	0.91	1.22	1.28	0.623	0.204	0.874	–	0.838	0.809	0.858	0.962	–	1.08	0.37
NCI-H1915	0.86	0.878	0.795	0.878	0.859	0.119	0.993	0.91	1.02	0.911	0.916	1.07	1.11	0.955	0.432	1.01	0.702	0.922	0.477	0.398	0.971	0.836	1.08	0.96
NCI-H1944	0.936	0.954	0.749	0.595	0.721	0.333	0.996	–	0.915	0.555	1	1.11	1.21	0.924	0.988	0.982	0.864	0.63	0.568	0.477	0.989	0.743	0.973	0.713
NCI-H1975	0.981	0.91	0.235	0.507	0.158	0.147	1.04	0.952	1.02	0.698	0.871	1	0.981	0.784	0.724	0.959	0.968	0.84	0.609	0.424	1.03	0.821	1.1	0.889
NCI-H1993	0.995	0.898	0.875	0.584	0.565	0.415	0.951	0.8	0.457	0.648	0.912	0.95	0.899	0.901	0.613	0.929	0.944	0.907	0.678	0.561	0.941	0.784	1.05	0.642
NCI-H2009	1.03	0.923	1.01	0.903	0.0828	0.0845	1.04	0.906	0.997	0.782	0.9	1.05	1.18	1	0.588	0.996	0.965	1.04	0.716	0.29	0.994	0.986	1.13	1.01
NCI-H2023	0.903	0.999	0.769	0.5	0.062	0.058	1.04	0.663	0.905	0.821	0.916	0.9	1.31	0.83	0.537	0.896	0.954	0.847	0.43	0.0909	0.928	1.04	1.13	0.968
NCI-H2085	0.964	0.931	0.466	0.779	0.576	0.384	1.02	0.893	1.09	0.967	1.03	1.06	1.12	0.91	0.754	0.995	0.974	1.02	0.817	0.947	0.975	0.811	1.06	0.944
